# Source: patent US6800658B2, “Substituted diphenyl indanone, indane and indole compounds and analogues thereof useful for the treatment of prevention of diseases characterized by abnormal cell proliferation” (Children's Medical Center Corporation, priority 1997, dated 2004)
# Legend:
# SAD mouse red cells = conditions: oral administration; cited from earlier work
# [1] = system: patients with sickle cell disease; conditions: oral therapy; cited from earlier work
# [2] = system: MM-RU human melanoma cells; conditions: SCID mice inoculated with MM-RU human melanoma cells, daily administration; cited from earlier work
# [3] = system: NIH 3T3 mouse fibroblast cells; experiment: Mitogenic Assay (mitogen-induced cell proliferation); conditions: for inhibition at 10 µM: NIH3T3, read-out: Mitogenic Assay Inhibition; for IC50: NIH3T3, read-out: Mitogenic Assay IC50
# [4] = target: Gardos channel of erythrocytes (Homo sapiens, UniProt O15554); experiment: Gardos Channel Assay; conditions: for inhibition at 10 µM: read-out: Gardos Channel Assay Inhibition
# HT29 = experiment: SRB antiproliferative assay, HT29; conditions: Homo sapiens, HT-29, 120 h, read-out: SRB IC50 HT29
# Experimental: (§2) The antiproliferative assays described herein were performed using standard aseptic procedures and universal precautions for the use of tissues. Cells were propagated using RPMI 1640 media (Gibco) containing 2% N 5% fetal calf serum (Biowhittaker) at 37° C., 5% CO2 and 95% humidity. The cells were passaged using Trypsin (Gibco).
# (§3) Following incubation, the cellular protein was determined with the ulforhodamine B (SRB) assay (Skehan P et al., 1990, J. Natl. Cancer Inst. 82:1107-1112).
# ACHN = experiment: SRB antiproliferative assay, ACHN; assay type: cell-based; conditions: Homo sapiens, 120 h, Renal, 5% FCS, 5 Day Incubation
# Text: (§1) The cells were passaged using Trypsin (Gibco).
# CaSki = experiment: SRB antiproliferative assay, CaSki; assay type: cell-based; conditions: Homo sapiens, Ca-Ski, 120 h; Cervical; 5% FCS, 5 Day Incubation
# Text: as §1
# 3T3 = experiment: SRB assay, normal 3T3 cells; assay type: cell-based; conditions: NIH3T3, 120 h; Normal mouse; 5% FCS, 5 Day Incubation
# Text: as §1
# SK-OV-3 = experiment: SRB antiproliferative assay, SK-OV-3; assay type: cell-based; conditions: Homo sapiens, SK-OV-3, 120 h; Ovary; 5% FCS, 5 Day Incubation
# Text: as §1
# MMRU cells = experiment: SRB antiproliferative assay, MMRU; conditions: Homo sapiens, 120 h, read-out: SRB IC50 MMRU
# Experimental: as §2, §3
# A549 = experiment: SRB antiproliferative assay, A549; conditions: Homo sapiens, A549, 120 h, read-out: SRB IC50 A549
# Experimental: as §2, §3
# HCT-15 = experiment: SRB antiproliferative assay, HCT-15; assay type: cell-based; conditions: Homo sapiens, HCT-15, 120 h; Colon; 5% FCS, 5 Day Incubation
# Text: as §1
# HEPG2 = experiment: SRB antiproliferative assay, HEPG2; assay type: cell-based; conditions: Homo sapiens, HepG2, 120 h; Hepatocel; 5% FCS, 5 Day Incubation
# Text: as §1
# HTB174 = experiment: SRB antiproliferative assay, HTB174; assay type: cell-based; conditions: 120 h; Lung; 5% FCS, 5 Day Incubation
# Text: as §1
# GM = experiment: SRB assay, normal GM cells; assay type: cell-based; conditions: 120 h; Normal human; 5% FCS, 5 Day Incubation
# Text: as §1
# DU-145 = experiment: SRB antiproliferative assay, DU-145; assay type: cell-based; conditions: Homo sapiens, DU-145, 120 h; Prostate; 5% FCS, 5 Day Incubation
# Text: as §1
# L929 = experiment: SRB assay, normal L929 cells; assay type: cell-based; conditions: L929, 120 h; Normal mouse; 5% FCS, 5 Day Incubation
# Text: as §1
# MDA-MB-231 = experiment: SRB antiproliferative assay, MDA-MB-231; assay type: cell-based; conditions: Homo sapiens, 120 h; Breast; 5% FCS, 5 Day Incubation; read-out: SRB IC50 MDA-MB-23
# Text: as §1
# SK-MEL-28 = experiment: SRB antiproliferative assay, SK-MEL-28; assay type: cell-based; conditions: Homo sapiens, SK-MEL-28, 120 h; Melanoma; 5% FCS, 5 Day Incubation
# Text: as §1
# HeLa = experiment: SRB antiproliferative assay, HeLa; assay type: cell-based; conditions: Homo sapiens, 120 h, Cervical, 5% FCS, 5 Day Incubation
# Text: as §1
# HUVEC = experiment: SRB assay, normal HUVEC cells; assay type: cell-based; conditions: 120 h, Normal human, 5% FCS, 5 Day Incubation
# Text: as §1
# MCF7 = experiment: SRB antiproliferative assay, MCF7; conditions: Homo sapiens, MCF7, 120 h, read-out: SRB IC50 MCF7
# Experimental: as §2, §3
# Gardos channel of erythrocytes, sequence (O15554 whole entry): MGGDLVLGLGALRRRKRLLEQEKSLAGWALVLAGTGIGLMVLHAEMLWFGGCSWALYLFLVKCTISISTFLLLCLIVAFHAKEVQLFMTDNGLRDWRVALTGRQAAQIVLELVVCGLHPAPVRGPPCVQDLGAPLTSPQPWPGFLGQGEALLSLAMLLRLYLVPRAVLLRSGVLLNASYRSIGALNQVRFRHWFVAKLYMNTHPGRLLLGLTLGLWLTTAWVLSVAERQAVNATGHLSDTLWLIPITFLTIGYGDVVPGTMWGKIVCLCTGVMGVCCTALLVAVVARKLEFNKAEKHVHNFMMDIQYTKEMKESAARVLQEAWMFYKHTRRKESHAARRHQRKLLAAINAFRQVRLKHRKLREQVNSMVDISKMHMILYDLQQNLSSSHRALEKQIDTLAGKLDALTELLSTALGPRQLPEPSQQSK
structure (smiles),measurement,setting,value
Clc1ccccc1C(c1ccccc1)(c1ccccc1)n1ccnc1 [Clotrimazole],cell density,SAD mouse red cells,decreased
same,mean cell hemoglobin concentration (MCHC),SAD mouse red cells,decreased
same,red cell Gardos channel,SAD mouse red cells,inhibition
same,red cell K+ content,SAD mouse red cells,increased
same,Gardos channel,[1],induces inhibition
same,erythrocyte dehydration,[1],reduces
same,number of lung metastases observed,[2],significant reduction
"N#CC1OC12CC(c1ccccc1)(c1ccccc1)c1ccccc12 (stereo not drawn) [Compound 5, spiro[3,3-diphenyl-2,3-dihydro(1H)indene-1,3′-2′-cyanooxirane]]",inhibition at 10 µM,[3],29%
same,inhibition at 10 µM,[4],67.3%
C=CCOC1=C(CC=C)C(c2ccccc2)(c2ccccc2)c2ccccc21 [Compound 6],IC50,[3],3.4 µM
same,inhibition at 10 µM,[3],90%
same,inhibition at 10 µM,[4],35%
O/N=C1\CC(c2ccc(Cl)cc2)(c2ccc(Cl)cc2)c2ccc(Cl)cc21 [Compound 11],IC50,HT29,6.8 µM
same,IC50,ACHN,> 10 µM
same,IC50,CaSki,7 µM
same,IC50,3T3,> 10 µM
same,IC50,SK-OV-3,> 10 µM
same,IC50,MMRU cells,6.2 µM
same,IC50,[3],3.4 µM
same,inhibition at 10 µM,[3],99%
same,IC50,A549,8.8 µM
same,IC50,HCT-15,6.6 µM
same,IC50,HEPG2,5.8 µM
same,IC50,HTB174,5.9 µM
same,IC50,GM,> 10 µM
same,IC50,DU-145,> 10 µM
same,IC50,L929,8.6 µM
same,inhibition at 10 µM,[4],50%
same,melting point,,85 °C
same,IC50,MDA-MB-231,> 10 µM
same,IC50,SK-MEL-28,5.5 µM
same,IC50,HeLa,5.1 µM
same,IC50,HUVEC,6.4 µM
same,IC50,MCF7,4.4 µM
"COC(=O)C1C(=O)c2ccccc2C1(c1ccccc1)c1ccccc1 (stereo not drawn) [Compound 15, 3,3-Diphenylindanone-2-methyl acetate]",IC50,[3],7.5 µM
same,inhibition at 10 µM,[3],80%
same,IC50,[4],2900 nM
same,inhibition at 10 µM,[4],54.8%
same,melting point,,140 to 142 °C
"COC(=O)c1ccc(COC2CC(c3ccccc3)(c3ccccc3)c3ccccc32)cc1 (stereo not drawn) [Compound 17, 3,3-Diphenyl-1-indanyl α-(4-methyltoluate) ether]",inhibition at 10 µM,[3],76%
same,inhibition at 10 µM,[4],0%
same,melting point,,50 to 52 °C
"Clc1ccccc1COC1CC(c2ccccc2)(c2ccccc2)c2ccccc21 (stereo not drawn) [Compound 18, 3,3-Diphenyl-1-indanyl α-(2-chlorotoluyl) ether]",inhibition at 10 µM,[3],73%
same,inhibition at 10 µM,[4],0%
same,melting point,,27 to 29 °C
"OC1=C(CCC2OCCO2)C(c2ccccc2)(c2ccccc2)c2ccccc21 [Compound 20, 2-(Ethyl-2′-(1,3-dioxolane))-1-hydroxy-3,3-diphenylindene]",inhibition at 10 µM,[3],81%
same,inhibition at 10 µM,[4],0%
same,melting point,,124 to 126 °C
